These results are taken from article PMC7012919, “TRPM7 contributes to progressive nephropathy” (Scientific Reports, 2020).

The target in this test is TRPM7 (Rattus norvegicus, UniProt Q925B3). As to the kind of experiment: whole-cell patch clamp of endogenous TRPM7 currents in NRK-52E and NRK-49F cells ([…] complete block); IC50 from Fura-2 Mn2+ quench in NRK-52E cells. The format is cell-based. (The patch-clamp technique gives a direct electrical read-out from membranes.)

Broadly, the IC50 is the midpoint of a concentration-inhibition curve.

Sequence of TRPM7 (Q925B3 whole entry): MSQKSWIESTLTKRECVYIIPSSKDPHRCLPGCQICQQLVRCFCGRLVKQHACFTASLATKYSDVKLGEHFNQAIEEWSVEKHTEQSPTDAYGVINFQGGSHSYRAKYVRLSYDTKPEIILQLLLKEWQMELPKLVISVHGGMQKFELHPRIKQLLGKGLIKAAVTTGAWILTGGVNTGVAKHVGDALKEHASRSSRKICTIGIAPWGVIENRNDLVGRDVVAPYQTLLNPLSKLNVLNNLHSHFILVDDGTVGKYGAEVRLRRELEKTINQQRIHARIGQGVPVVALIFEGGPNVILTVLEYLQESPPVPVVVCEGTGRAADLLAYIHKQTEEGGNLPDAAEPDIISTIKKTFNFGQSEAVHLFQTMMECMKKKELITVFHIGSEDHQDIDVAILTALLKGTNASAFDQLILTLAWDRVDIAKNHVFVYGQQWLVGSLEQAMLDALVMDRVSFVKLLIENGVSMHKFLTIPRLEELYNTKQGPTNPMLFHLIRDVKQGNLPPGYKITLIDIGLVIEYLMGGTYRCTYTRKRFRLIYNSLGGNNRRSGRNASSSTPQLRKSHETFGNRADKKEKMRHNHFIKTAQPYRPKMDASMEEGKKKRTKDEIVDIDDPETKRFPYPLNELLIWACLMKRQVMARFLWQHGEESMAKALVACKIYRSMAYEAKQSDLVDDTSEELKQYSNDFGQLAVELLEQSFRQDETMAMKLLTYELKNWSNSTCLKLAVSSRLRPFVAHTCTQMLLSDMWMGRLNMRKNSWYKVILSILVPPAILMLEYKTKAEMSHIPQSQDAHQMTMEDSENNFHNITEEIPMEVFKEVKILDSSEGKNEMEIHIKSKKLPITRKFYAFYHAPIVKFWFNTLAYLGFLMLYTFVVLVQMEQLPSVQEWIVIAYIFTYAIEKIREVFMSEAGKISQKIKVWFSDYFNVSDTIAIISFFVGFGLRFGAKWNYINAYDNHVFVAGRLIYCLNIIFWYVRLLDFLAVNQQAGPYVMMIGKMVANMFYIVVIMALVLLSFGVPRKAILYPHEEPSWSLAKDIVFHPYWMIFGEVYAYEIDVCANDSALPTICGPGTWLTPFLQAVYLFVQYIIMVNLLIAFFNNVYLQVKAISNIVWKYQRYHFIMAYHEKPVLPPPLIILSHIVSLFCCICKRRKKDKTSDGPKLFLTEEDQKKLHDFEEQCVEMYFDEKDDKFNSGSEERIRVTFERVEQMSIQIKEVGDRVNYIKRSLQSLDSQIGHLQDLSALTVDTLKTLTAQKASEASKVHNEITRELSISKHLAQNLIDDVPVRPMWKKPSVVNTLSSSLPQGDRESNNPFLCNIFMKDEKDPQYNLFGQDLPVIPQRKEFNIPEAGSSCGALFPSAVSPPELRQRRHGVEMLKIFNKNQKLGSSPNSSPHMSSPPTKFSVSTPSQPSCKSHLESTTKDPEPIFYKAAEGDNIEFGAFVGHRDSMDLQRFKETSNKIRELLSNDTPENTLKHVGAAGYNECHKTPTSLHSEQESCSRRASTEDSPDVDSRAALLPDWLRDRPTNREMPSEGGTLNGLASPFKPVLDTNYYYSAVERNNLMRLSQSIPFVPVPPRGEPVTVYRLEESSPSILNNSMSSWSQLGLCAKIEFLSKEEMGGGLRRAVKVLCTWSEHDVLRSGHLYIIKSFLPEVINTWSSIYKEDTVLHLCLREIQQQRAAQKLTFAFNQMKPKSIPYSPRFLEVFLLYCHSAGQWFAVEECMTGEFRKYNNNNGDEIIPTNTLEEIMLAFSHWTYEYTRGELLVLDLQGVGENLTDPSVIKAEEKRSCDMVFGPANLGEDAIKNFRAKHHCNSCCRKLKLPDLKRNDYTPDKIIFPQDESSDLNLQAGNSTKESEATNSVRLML

In turn, `c1ccc2c(c1)CCC[C@H]2Nc1nc2ccccc2[nH]1` [NS8593] displayed an IC50 of 16 ± 3 µM.
